# ChEMBL document CHEMBL3244039, “Antiviral activity of some beta-diketones. 2. Aryloxy alkyl diketones. In vitro activity against both RNA and DNA viruses” (1977)
# The source made the active and inactive calls. No cut-off for these calls is given here.
# Tests used:
# Human alphaherpesvirus 2 [1] = assay: Antiviral activity against Herpes simplex virus 2 assessed as inhibition of virus-induced cytopathic effect after 72 hrs by two-fold dilution method; assay type: functional; conditions: Human alphaherpesvirus 2, 72 h
# Equine rhinovirus = assay: Antiviral activity against Equine rhinovirus assessed as inhibition of virus-induced cytopathic effect after 48 hrs by two-fold dilution method
# Human alphaherpesvirus 2 [2] = assay: Antiviral activity against Herpes simplex virus 2 assessed as inhibition of virus-induced cytopathic effect at 50 ug/ml after 72 hrs by two-fold dilution method; assay type: functional, organism-based
# Human alphaherpesvirus 2 [3] = assay: Antiviral activity against Herpes simplex virus 2 Curtis assessed as inhibition of virus-induced cytopathic effect at 37 degC after 72 hrs by two-fold dilution method; assay type: functional; conditions: Human alphaherpesvirus 2, Curtis
# Human alphaherpesvirus 1 = assay: Antiviral activity against Herpes simplex virus 1 Sheely assessed as inhibition of virus-induced cytopathic effect at 37 degC after 72 hrs by two-fold dilution method; assay type: functional; conditions: Human alphaherpesvirus 1, Sheely
Structure (SMILES),MIC (Human alphaherpesvirus 2 [1]) [mg/L],MIC (Equine rhinovirus) [mg/L],inhibition (Human alphaherpesvirus 2 [2]),MIC (Human alphaherpesvirus 2 [3]) [mg/L],MIC (Human alphaherpesvirus 1) [mg/L]
CCC(=O)C(CCCCCCOc1ccc(O)cc1Cl)C(=O)CC,6,,,,
CCC(=O)C(CCCCCCOc1ccc(Br)cc1)C(=O)CC,6,3,,,
CCC(=O)C(CCCCCCOc1ccc(Br)cc1Cl)C(=O)CC,3,3,,,
CCC(=O)C(CCCCCCOc1ccc([N+](=O)[O-])cc1Cl)C(=O)CC,3,3,,,
CCC(=O)C(CCCCCCOc1ccc(OCCO)cc1Cl)C(=O)CC,1.5,3,,,
CCC(=O)C(CCCCCCCCOc1ccc2c(c1)OCO2)C(=O)CC,,,inactive,,
CCC(=O)C(CCCCCCCCCOc1ccc(OC)cc1Cl)C(=O)CC,12,6,,,
CCC(=O)C(CCCCCCOc1ccccc1F)C(=O)CC,12,3,,,
O=c1[nH]c(=O)n([C@H]2C[C@H](O)[C@@H](CO)O2)cc1I [IDOXURIDINE],,,,6,6
CCC(=O)C(CCCCCCOc1ccc(OC(=O)c2ccccc2)cc1)C(=O)CC,,,inactive,,
CCC(=O)C(CCCCCCOc1c(I)cc(I)cc1I)C(=O)CC,6,12,,,
CCC(=O)C(CCCCCCOc1c(F)c(F)c(F)c(F)c1F)C(=O)CC,12,,,,
CCC(=O)C(CCCCOc1ccc(OC)cc1Cl)C(=O)CC,,,inactive,,
CCOC(=O)C(CCCCCCOc1ccc(OC)cc1Cl)C(C)=O (configuration not stated),,6,inactive,,
CCC(=O)C(CCCCCCOc1ccccc1)C(=O)CC,1.5,6,,,
CCC(=O)C(CCCCCCOc1ccc(O)cc1)C(=O)CC,3,12,,,

Structure (SMILES),MIC (Human alphaherpesvirus 2 [1]) [mg/L],MIC (Equine rhinovirus) [mg/L],inhibition (Human alphaherpesvirus 2 [2]),MIC (Human alphaherpesvirus 2 [3]) [mg/L],MIC (Human alphaherpesvirus 1) [mg/L]
CCC(=O)C(CCCCCCOc1ccccc1[N+](=O)[O-])C(=O)CC,6,6,,,
CCC(=O)C(CCCCCCOc1ccc(F)cc1)C(=O)CC,3,3,,,
CCC(=O)C(CCCCCCOc1cccc(C(F)(F)F)c1)C(=O)CC,,,inactive,,
CCC(=O)C(CCCCOc1ccc2c(c1)OCO2)C(=O)CC,,12,inactive,,
CCC(=O)C(CCCCCCOc1ccc(OC)cc1)C(=O)CC,25,6,,,
CCC(=O)C(CCCCCCOc1ccc(OC)cc1[N+](=O)[O-])C(=O)CC,6,3,,,
CCC(=O)C(CCOCCOc1ccc(OC)cc1Cl)C(=O)CC,12,25,,,
CCC(=O)C(CCCCCCOc1ccc(OCc2ccccc2)cc1)C(=O)CC,1.5,1.5,,,
COc1ccc(OCCCCCCC(C(C)=O)C(C)=O)c(Cl)c1,12,,,,
CCC(=O)C(CCCCCCOc1ccc(F)cc1Cl)C(=O)CC,6,3,,,
CCC(=O)C(CCCCCCOc1ccc(OC(=O)c2ccc(C)cc2)cc1)C(=O)CC,,12,inactive,,
CCC(=O)C(CCCCCCOc1ccc(C(=O)O)cc1)C(=O)CC,,6,inactive,,
CCC(=O)C(CCCCCCOc1cc(Cl)cc(OC)c1)C(=O)CC,12,6,,,
CCC(=O)C(CCCCCCOc1c(Cl)c(Cl)c(Cl)c(Cl)c1Cl)C(=O)CC,,12,inactive,,
CCC(=O)C(CCCCCCOc1ccc(Cl)cc1)C(=O)CC,,3,inactive,,
CCC(=O)C(CCCCCCOc1ccc(OC(=O)CCCN2CCOCC2)cc1)C(=O)CC,12,12,,,
